# According to the Kinase Knowledgebase extract (Sharma et al. 2016):
# Experiments:
# EGFR (human) [1] = biological target: EGFR (human) (UniProt P00533); settings: a2780ddp
# EGFR (human) [2] = biological target: EGFR (human) (UniProt P00533); settings: mda435
# EGFR (human) [3] = biological target: EGFR (human) (UniProt P00533); settings: a431
# EGFR (human) [4] = biological target: EGFR (human) (UniProt P00533); settings: a2780
# EGFR (human) [5] = biological target: EGFR (human) (UniProt P00533); settings: 3t3
# EGFR = EGFR (UniProt P00533)
# Chain of EGFR (P00533 whole entry, looked up): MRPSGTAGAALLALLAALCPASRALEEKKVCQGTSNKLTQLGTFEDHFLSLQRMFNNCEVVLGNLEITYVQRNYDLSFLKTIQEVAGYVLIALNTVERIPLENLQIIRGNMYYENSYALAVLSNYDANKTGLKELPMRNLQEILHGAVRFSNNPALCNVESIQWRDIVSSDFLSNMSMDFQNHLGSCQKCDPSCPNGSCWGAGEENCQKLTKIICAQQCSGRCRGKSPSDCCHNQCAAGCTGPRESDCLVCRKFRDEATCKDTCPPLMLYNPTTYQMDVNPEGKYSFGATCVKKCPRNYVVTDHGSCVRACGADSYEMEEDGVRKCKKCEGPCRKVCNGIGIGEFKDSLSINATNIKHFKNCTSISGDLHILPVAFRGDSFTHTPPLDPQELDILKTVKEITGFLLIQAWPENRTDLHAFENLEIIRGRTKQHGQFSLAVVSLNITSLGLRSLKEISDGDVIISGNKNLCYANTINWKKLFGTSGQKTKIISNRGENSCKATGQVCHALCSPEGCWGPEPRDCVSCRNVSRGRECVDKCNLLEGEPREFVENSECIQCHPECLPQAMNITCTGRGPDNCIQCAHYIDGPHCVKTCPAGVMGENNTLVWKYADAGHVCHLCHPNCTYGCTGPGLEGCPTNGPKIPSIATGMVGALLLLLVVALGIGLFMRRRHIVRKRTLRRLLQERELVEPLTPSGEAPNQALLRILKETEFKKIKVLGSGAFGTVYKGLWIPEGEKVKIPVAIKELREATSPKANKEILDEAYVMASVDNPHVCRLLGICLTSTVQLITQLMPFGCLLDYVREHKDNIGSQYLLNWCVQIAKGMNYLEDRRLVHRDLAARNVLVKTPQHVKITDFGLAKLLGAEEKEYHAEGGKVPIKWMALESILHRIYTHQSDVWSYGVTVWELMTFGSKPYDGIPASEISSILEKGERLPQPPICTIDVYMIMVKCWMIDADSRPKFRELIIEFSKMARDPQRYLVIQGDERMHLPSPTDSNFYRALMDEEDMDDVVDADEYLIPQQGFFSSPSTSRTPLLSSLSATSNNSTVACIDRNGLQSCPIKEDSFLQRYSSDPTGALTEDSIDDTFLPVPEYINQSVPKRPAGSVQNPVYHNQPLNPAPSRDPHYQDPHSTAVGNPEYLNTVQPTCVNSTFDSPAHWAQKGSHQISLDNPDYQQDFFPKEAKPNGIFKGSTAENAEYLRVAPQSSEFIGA
# EGFR (human) [6] = biological target: EGFR (human) (UniProt P00533); settings: sk-br-3
# Chain of EGFR (human) (P00533 whole entry, looked up): as above
compound,measurement,setting,value
CNc1cc2c(Nc3cccc(Br)c3)c(C#N)cnc2cn1,IC50,EGFR (human) [1],0.43 to 2.25 µg/mL
same,IC50,EGFR (human) [2],0.98 to 3.94 µg/mL
same,IC50,EGFR (human) [3],0.209 to 0.31 µg/mL
same,IC50,EGFR (human) [4],0.74 to 2.36 µg/mL
CN(C)C/C=C/C(=O)Nc1cc2c(Nc3cccc(Br)c3)c(C#N)cnc2cn1,IC50,EGFR (human) [5],0.272 to 0.373 µg/mL
CN(C)C/C=C/C(=O)Nc1cnc2ncc(C#N)c(Nc3cccc(Br)c3)c2c1,IC50,EGFR,800 nM
COc1ccc(CNc2cc3c(Nc4cccc(Br)c4)c(C#N)cnc3cn2)cc1,IC50,EGFR,> 100 nM
CCOc1ccc2ncc(C#N)c(Nc3cccc(Br)c3)c2n1,IC50,EGFR,> 10000 nM
N#Cc1cnc2cnc(NCCN3CCOCC3)cc2c1Nc1cccc(Br)c1,IC50,EGFR (human) [1],0.8 µg/mL
same,IC50,EGFR (human) [6],0.4 µg/mL
CC#CC(=O)Nc1cc2c(Nc3cccc(Br)c3)c(C#N)cnc2cn1,IC50,EGFR (human) [4],0.06 µg/mL
